According to PubChem BioAssay (NCI):
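All cell lines were grown in 96-well plates and treated with compound for 48 hours. GI50 is the concentration that inhibits growth by half. TGI: concentration producing complete growth inhibition.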

Columns and labels:
Assay in all cases: DTP human tumour cell line panel, 48 h
A498 renal = tested on: A498 renal
NCI-H460 lung = tested on: NCI-H460 lung
SNB-75 CNS = tested on: SNB-75 CNS
A549 NSCLC = tested on: A549 NSCLC
DU-145 prostate = tested on: DU-145 prostate
M14 melanoma = tested on: M14 melanoma
SK-OV-3 ovarian = tested on: SK-OV-3 ovarian
HCC-2998 colon = tested on: HCC-2998 colon
NCI-H23 lung = tested on: NCI-H23 lung
HL-60(TB) leukemia = tested on: HL-60(TB) leukemia
SN12C renal = tested on: SN12C renal
MALME-3M melanoma = tested on: MALME-3M melanoma
T-47D breast = tested on: T-47D breast
SF-295 CNS = tested on: SF-295 CNS
HOP-62 NSCLC = tested on: HOP-62 NSCLC
CCRF-CEM leukemia = tested on: CCRF-CEM leukemia
SK-MEL-28 melanoma = tested on: SK-MEL-28 melanoma
SF-268 CNS = tested on: SF-268 CNS
RXF 393 renal = tested on: RXF 393 renal
SK-MEL-2 melanoma = tested on: SK-MEL-2 melanoma
K-562 leukemia = tested on: K-562 leukemia
SK-MEL-5 melanoma = tested on: SK-MEL-5 melanoma
HCT-15 colon = tested on: HCT-15 colon
HT29 colon = tested on: HT29 colon
HCT-116 colon = tested on: HCT-116 colon
CAKI-1 renal = tested on: CAKI-1 renal
UACC-62 melanoma = tested on: UACC-62 melanoma
786-0 renal = tested on: 786-0 renal
RPMI-8226 leukemia = tested on: RPMI-8226 leukemia
U251 CNS = tested on: U251 CNS
OVCAR-3 ovarian = tested on: OVCAR-3 ovarian
MDA-MB-231 breast = tested on: MDA-MB-231 breast
NCI-H522 lung = tested on: NCI-H522 lung
OVCAR-5 ovarian = tested on: OVCAR-5 ovarian
MCF7 breast = tested on: MCF7 breast
UACC-257 melanoma = tested on: UACC-257 melanoma
MDA-MB-468 breast = tested on: MDA-MB-468 breast
ACHN renal = tested on: ACHN renal
BT-549 breast = tested on: BT-549 breast
MOLT-4 leukemia = tested on: MOLT-4 leukemia
HS 578T breast = tested on: HS 578T breast
NCI-H226 lung = tested on: NCI-H226 lung
MDA-MB-435 = tested on: MDA-MB-435
EKVX NSCLC = tested on: EKVX NSCLC
UO-31 renal = tested on: UO-31 renal
PC-3 prostate = tested on: PC-3 prostate
OVCAR-4 ovarian = tested on: OVCAR-4 ovarian
OVCAR-8 ovarian = tested on: OVCAR-8 ovarian
SNB-19 CNS = tested on: SNB-19 CNS
IGROV1 ovarian = tested on: IGROV1 ovarian
TK-10 renal = tested on: TK-10 renal
KM12 colon = tested on: KM12 colon
SF-539 CNS = tested on: SF-539 CNS
HOP-92 NSCLC = tested on: HOP-92 NSCLC

O=C(/C=C/c1cccc(OCc2ccccc2)c1)c1nc2ccccc2[nH]1
GI50 (A498 renal): 25 µM | TGI (A498 renal): > 100 µM | GI50 (NCI-H460 lung): 15.4 µM | TGI (NCI-H460 lung): > 100 µM | GI50 (SNB-75 CNS): 14.4 µM | TGI (SNB-75 CNS): 48.7 µM | GI50 (A549 NSCLC): 49.9 µM | TGI (A549 NSCLC): > 100 µM | GI50 (DU-145 prostate): 54.6 µM | TGI (DU-145 prostate): > 100 µM | GI50 (M14 melanoma): 45.1 µM | TGI (M14 melanoma): > 100 µM | GI50 (SK-OV-3 ovarian): 20.2 µM | TGI (SK-OV-3 ovarian): 73.9 µM | GI50 (HCC-2998 colon): 7.19 µM | TGI (HCC-2998 colon): 41.3 µM | GI50 (NCI-H23 lung): 18.3 µM | TGI (NCI-H23 lung): > 100 µM | GI50 (HL-60(TB) leukemia): 4.39 µM | TGI (HL-60(TB) leukemia): 25 µM | GI50 (SN12C renal): 38 µM | TGI (SN12C renal): > 100 µM | GI50 (MALME-3M melanoma): 28.3 µM | TGI (MALME-3M melanoma): > 100 µM | GI50 (T-47D breast): 6.9 µM | TGI (T-47D breast): > 100 µM | GI50 (SF-295 CNS): 15.6 µM | TGI (SF-295 CNS): 37.9 µM | GI50 (HOP-62 NSCLC): 17.8 µM | TGI (HOP-62 NSCLC): 43.2 µM | GI50 (CCRF-CEM leukemia): 8.99 µM | TGI (CCRF-CEM leukemia): > 100 µM | GI50 (SK-MEL-28 melanoma): 25.2 µM | TGI (SK-MEL-28 melanoma): > 100 µM | GI50 (SF-268 CNS): 26.2 µM | TGI (SF-268 CNS): > 100 µM | GI50 (RXF 393 renal): 10.5 µM | TGI (RXF 393 renal): 27.9 µM | GI50 (SK-MEL-2 melanoma): 22.5 µM | TGI (SK-MEL-2 melanoma): 64.8 µM | GI50 (K-562 leukemia): 4.14 µM | TGI (K-562 leukemia): > 100 µM | GI50 (SK-MEL-5 melanoma): 39.1 µM | TGI (SK-MEL-5 melanoma): > 100 µM | GI50 (HCT-15 colon): 3.06 µM | TGI (HCT-15 colon): > 100 µM | GI50 (HT29 colon): 3.98 µM | TGI (HT29 colon): > 100 µM | GI50 (HCT-116 colon): 3.2 µM | TGI (HCT-116 colon): > 100 µM | GI50 (CAKI-1 renal): 14 µM | TGI (CAKI-1 renal): > 100 µM | GI50 (UACC-62 melanoma): 15.6 µM | TGI (UACC-62 melanoma): > 100 µM | GI50 (786-0 renal): 14 µM | TGI (786-0 renal): 44.1 µM | GI50 (RPMI-8226 leukemia): 2.86 µM | TGI (RPMI-8226 leukemia): 8.3 µM | GI50 (U251 CNS): 3.03 µM | TGI (U251 CNS): 10.2 µM | GI50 (OVCAR-3 ovarian): 4.01 µM | TGI (OVCAR-3 ovarian): > 100 µM | GI50 (MDA-MB-231 breast): 11.9 µM | TGI (MDA-MB-231 breast): 42.5 µM | GI50 (NCI-H522 lung): 26.3 µM | TGI (NCI-H522 lung): > 100 µM | GI50 (OVCAR-5 ovarian): 25.2 µM | TGI (OVCAR-5 ovarian): > 100 µM | GI50 (MCF7 breast): 2.9 µM | TGI (MCF7 breast): > 100 µM | GI50 (UACC-257 melanoma): > 100 µM | TGI (UACC-257 melanoma): > 100 µM | GI50 (MDA-MB-468 breast): 10.7 µM | TGI (MDA-MB-468 breast): 82.5 µM | GI50 (ACHN renal): 29.6 µM | TGI (ACHN renal): > 100 µM | GI50 (BT-549 breast): 11.4 µM | TGI (BT-549 breast): 40.2 µM | GI50 (MOLT-4 leukemia): 5.28 µM | TGI (MOLT-4 leukemia): 55.1 µM | GI50 (HS 578T breast): 20.3 µM | TGI (HS 578T breast): 82.5 µM | GI50 (NCI-H226 lung): 24.3 µM | TGI (NCI-H226 lung): > 100 µM | GI50 (MDA-MB-435): > 100 µM | TGI (MDA-MB-435): > 100 µM | GI50 (EKVX NSCLC): 19.9 µM | TGI (EKVX NSCLC): 69.7 µM | GI50 (UO-31 renal): 8.96 µM | TGI (UO-31 renal): > 100 µM | GI50 (PC-3 prostate): 15.9 µM | TGI (PC-3 prostate): > 100 µM | GI50 (OVCAR-4 ovarian): 23.9 µM | TGI (OVCAR-4 ovarian): > 100 µM | GI50 (OVCAR-8 ovarian): 17 µM | TGI (OVCAR-8 ovarian): 72.6 µM | GI50 (SNB-19 CNS): 13.6 µM | TGI (SNB-19 CNS): 41.1 µM | GI50 (IGROV1 ovarian): 14 µM | TGI (IGROV1 ovarian): 78.2 µM | GI50 (TK-10 renal): 28.6 µM | TGI (TK-10 renal): > 100 µM | GI50 (KM12 colon): 3.56 µM | TGI (KM12 colon): > 100 µM | GI50 (SF-539 CNS): 8.82 µM | TGI (SF-539 CNS): 26.7 µM | GI50 (HOP-92 NSCLC): 6.51 µM | TGI (HOP-92 NSCLC): 37.2 µM

C#Cc1cccc(NC(=O)Nc2ccccc2NC(=O)CCl)c1
GI50 (MDA-MB-468 breast): 16 µM | TGI (MDA-MB-468 breast): 39.3 µM

O=C(CCCCCCc1nc2ccc(Br)cc2[nH]1)NO
GI50 (MDA-MB-468 breast): 0.248 µM | TGI (MDA-MB-468 breast): 6.37 µM

C=C1C(=O)OC(CCCCCCCC)C1C(=O)O (stereo not given)
GI50 (MDA-MB-468 breast): 5.61 µM | TGI (MDA-MB-468 breast): 16.7 µM

C(=N\Nc1ncc(-c2cc3cc4c(cc3o2)OCO4)s1)/c1c[nH]c2ccccc12
GI50 (MDA-MB-468 breast): 1.01 µM | TGI (MDA-MB-468 breast): 6.05 µM

CCOC(=O)c1cc2c(n1Cc1cccc(OC)c1)-c1oncc1CC2
GI50 (MDA-MB-468 breast): 0.346 µM | TGI (MDA-MB-468 breast): 2.49 µM

Cc1ncc(C(=O)Nc2ccc(CN3CCN(C)CC3)c(C(F)(F)F)c2)cc1C#Cc1c(N)ncc2ccc(C#N)cc12
GI50 (MDA-MB-468 breast): 7.86 µM | TGI (MDA-MB-468 breast): 28.1 µM

CCOc1ccc([C@H]2C(C(=O)c3ccc(Cl)cc3)C3(N[C@@H]2c2ccccc2)C(=O)Nc2ccc(Br)cc23)cc1 (stereo not given in full)
GI50 (MDA-MB-468 breast): 16.6 µM | TGI (MDA-MB-468 breast): 41.8 µM

COc1ccc(C(=O)CC2(O)C(=O)Nc3c(Cl)ccc(Cl)c32)cc1 (stereo not given)
GI50 (MDA-MB-468 breast): 0.536 µM

COc1ccc(/C=C2/SC(=Nc3c(C)nn(-c4ccccc4)c3N)NC2=O)cc1
GI50 (MDA-MB-468 breast): 3.24 µM | TGI (MDA-MB-468 breast): 12.4 µM

COc1cc(-c2cc(-c3ccc(N(C)C)cc3)nc(N3CCC(O)CC3)c2C#N)cc(OC)c1OC
GI50 (MDA-MB-468 breast): 1.11 µM | TGI (MDA-MB-468 breast): 4.08 µM

COc1cc[c]([Hg][Cl])cc1
GI50 (MDA-MB-468 breast): 1.66 µM | TGI (MDA-MB-468 breast): 3.35 µM

CCc1cc(C(N)=O)ccc1-n1nc(C(C)C)c2c(-n3cnc(-c4cnn(C)c4)c3)ccnc21
GI50 (MDA-MB-468 breast): 0.821 µM | TGI (MDA-MB-468 breast): > 22.2 µM

FC(F)(F)c1ccc2nc(-c3nc(-c4ccccc4)n4ccccc34)[nH]c2c1
GI50 (MDA-MB-468 breast): 2.02 µM | TGI (MDA-MB-468 breast): 7.31 µM

O=c1ccc2nc(-c3ccccc3)nn(-c3ccccc3)c-2c1
GI50 (MDA-MB-468 breast): 1.02 µM | TGI (MDA-MB-468 breast): 2.4 µM
